Like-named read-outs stand apart in the source and are kept apart here.

Test [1] concerns Male Wistar rats. Kind of test: Intra testicular injection of acetic acid-induced characteristic pain or discomfort behavior. Type of test: in vivo, rat. The method, then:
(§1) Male Wistar rats aged 5 to 12 weeks (Charles River Japan) were used. Positions of the testes were confirmed by keeping the waist of each rat from the dorsal side, and a stimulative substance at a volume of 1 ml/kg was administered into the right and left testes using a syringe equipped with a 27 G needle.
When the intra-testicular administration is achieved, the testes are swelled and become hard in touch. The individuals whose testes were not swelled after the injection were judged as failure in the injection and excluded from further analysis. In addition, dye mixed stimulative substance was injected into the testes and the distribution of the dye within the testes was checked after completion of the experiments to verify whether a stimulative substance was successfully administered or not.
All data was presented as mean and standard error of the mean. The unpaired parametric t-test was used to compare the two group. The parametric Dunnett's multiple comparison test was performed to compare the three groups or more. P<0.05 was considered statistically significant.
(1) Dose-dependency of acetic acid: A rat was placed individually in a clear, round, plastic container (Natsume, Japan) for observation immediately after the intra testicular injection of 0.3, 1 and 3% acetic acid aqueous solutions or distilled water. […] Among these behaviors, the number of behaviors 1) to 3), frequently observed behavior, was counted from 5 to 20 minutes after the intra testicular injection of acetic acid.
(2) Effects of indomethacin: Indomethacin at 5 mg/3 mL/kg (Sigma-Aldrich Japan, Japan) or 0.1% Na2CO3 aqueous solution (vehicle solution) was orally administered 1 hour before the intra testicular injection of 1% acetic acid. Number of the characteristic pain or discomfort behavior was measured in the same manner as described in the above section.

Test [2] has as its system Male Wistar rats. Conditions: 1% acetic acid 1 ml/kg intra testicular; 30 to 60 min after injection; distilled water group 97±8%; p<0.05. From the text: All data was presented as mean and standard error of the mean. The unpaired parametric t-test was used to compare the two group. P<0.05 was considered statistically significant.
Test [3] relates to Male Wistar rats. Description: Intra testicular injection of NGF-induced pain or discomfort behavior. Type of test: in vivo, rat. As to conditions: 10 to 30 minutes after injection, p<0.01. The method, then: as §1
When the intra-testicular administration is achieved, the testes are swelled and become hard in touch. The individuals whose testes were not swelled after the injection were judged as failure in the injection and excluded from further analysis. […]
(1) Dose dependency of NGF: Mouse NGF 2.5S (Alomone Labs, Ltd., Israel) at […] or saline (vehicle solution) was administered to both of the testes in rat. […] Thus, the total time the behavior of 1) was measured by a stopwatch from 10 to 30 minutes after the intra testicular injection.
(2) Effects of morphine: Morphine (Takeda Chemical Industry, Ltd., Japan) at 5 mg/kg or saline (vehicle solution) was subcutaneously administered 30 minutes before the intra testicular injection of 100 μg/kg NGF. Total time of the above mentioned characteristic pain or discomfort behavior was measured from 10 to 30 minutes after the intra testicular injection of NGF. […]

Test [4] deals with Male Wistar rats. Kind of test: Effects of intra testicular injection of NGF on bladder capacity (conscious cystometry). Type of test: in vivo, rat. As to conditions: 100 μg/kg NGF (1 ml/kg) intra testicular; 30 to 60 min after injection; saline group 104±14%; p<0.01. The method, then:
P<0.05 was considered statistically significant.
After that, “pre bladder capacity” was recorded for 1 hr. […] Physiological saline (1 ml/kg) or 100 μg/kg NGF (1 ml/kg) were injected into the testes. […] The bladder capacity in the saline treated group was 104±14%, thus showing no significant change. […] This change was significant in comparison with that of physiological saline treated group (FIG. 6).

On to `CC(=O)O` [acetic acid], for which the “characteristic pain or discomfort behaviors” value in the test with Male Wistar rats [1] (0.3% acetic acid aqueous solution, 1 ml/kg intra testicular, 5 to 20 minutes after injection, rat) was “No characteristic pain or discomfort behaviors was observed”. Also, the “number of pain or discomfort behaviors” value with Male Wistar rats [1] (1% acetic acid aqueous solution, 1 ml/kg intra testicular; behaviors 1) to 3) counted 5 to 20 minutes after injection, rat) is given as 16±2 times; with Male Wistar rats [1] (3% acetic acid aqueous solution, 1 ml/kg intra testicular; behaviors 1) to 3) counted 5 to 20 minutes after injection, rat), 19±6 times. Further, the “bladder capacity, percent of the pre bladder capacity” value with Male Wistar rats [2] amounted to 53±12%.
On to `COc1ccc2c(c1)c(CC(=O)O)c(C)n2C(=O)c1ccc(Cl)cc1` [indomethacin, Indomethacin], for which the “number of the characteristic pain or discomfort behaviors” value with Male Wistar rats [1] (5 mg/3 mL/kg orally 1 hour before intra testicular 1% acetic acid, counted 5 to 20 minutes, vehicle group 19±6 times, p<0.01) was determined as 3±2 times.
Consider `CN1CC[C@]23c4c5ccc(O)c4O[C@H]2[C@@H](O)C=C[C@H]3[C@H]1C5` [morphine, Morphine], for which, in the test on Male Wistar rats [3] (5 mg/kg subcutaneously 30 minutes before intra testicular 100 μg/kg NGF, vehicle group 167±31 seconds), the “total time of the characteristic pain or discomfort behavior” value was found to be 9 ± 4 s.

B1: NGF: Mouse NGF 2.5S (Alomone Labs), nerve growth factor used as stimulative substance injected into the testes (protein, UniProt P01139 122-241, looked up)
Beta-nerve growth factor: SSTHPVFHMGEFSVCDSVSVWVGDKTTATDIKGKEVTVLAEVNINNSVFRQYFFETKCRASNPVESGCRGIDSKHWNSYCTTTHTFVKALTTDEKQAAWRFIRIDTACVCVLSRKATRRG
Regarding B1, the “total time of the characteristic pain or discomfort behavior (scratching the body vigorously with hindlimbs)” value with Male Wistar rats [3] (100 μg/ml/kg NGF intra testicular, vehicle group 1.0±0.4 second) was 155 ± 29 s. Also, the “bladder capacity, percent of the pre bladder capacity” value with Male Wistar rats [4] turned out to be 29±9%.

The values are drawn from patent US8426673B2, “Pathological animal model for pelvic pain syndrome” (Astellas Pharma, Inc., priority 2008, dated 2013).
